Data published in US20100267561A1, “HERBICIDAL PYRIDAZINONE DERIVATIVES” (priority 2007, published 2010).

How the values were obtained:
Assay type in all cases: in vivo
[1] = test system: wild mustard (Sinapis arvensis); experiment: Test C pre-/postemergence plant response
Method in brief: (§1)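 Pre- and postemergence treatment, visual 0–100 rating vs controls at 15–25 days.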

[2] = test system: windgrass (Apera spica-venti); experiment: Test C pre-/postemergence plant response
Method in brief: as §1

[3] = test system: Italian ryegrass (Lolium multiflorum); experiment: Test C pre-/postemergence plant response
Method in brief: as §1

[4] = test system: pigweed (Amaranthus retroflexus); experiment: Test C pre-/postemergence plant response
Method in brief: as §1

wild oat (Avena fatua) = experiment: Test C pre-/postemergence plant response
Method in brief: as §1

[5] = test system: annual bluegrass (Poa annua); experiment: Test C pre-/postemergence plant response
Method in brief: as §1

[6] = test system: blackgrass (Alopecurus myosuroides); experiment: Test C pre-/postemergence plant response
Method in brief: as §1

[7] = test system: spring barley (Hordeum vulgare); experiment: Test C pre-/postemergence plant response
Method in brief: as §1

[8] = test system: spring wheat (Triticum aestivum); experiment: Test C pre-/postemergence plant response
Method in brief: as §1

[9] = test system: winter wheat (Triticum aestivum); experiment: Test C pre-/postemergence plant response
Method in brief: as §1

[10] = test system: winter barley (Hordeum vulgare); experiment: Test C pre-/postemergence plant response
Method in brief: as §1

[11] = test system: canarygrass (Phalaris minor); experiment: Test C pre-/postemergence plant response
Method in brief: as §1

[12] = test system: downy bromegrass (Bromus tectorum); experiment: Test C pre-/postemergence plant response
Method in brief: as §1

[13] = test system: green foxtail (Setaria viridis); experiment: Test C pre-/postemergence plant response
Method in brief: as §1

[14] = test system: ducksalad (Heteranthera limosa); experiment: Test B flooded paddy test plant response
Method in brief: (§2)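 2-leaf plants; pots flooded 3 cm above soil; compound added to paddy water; depth maintained. Greenhouse 13–15 d. Visual rating vs controls, 0 (no effect) to 100 (complete control); dash = no result.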

rice (Oryza sativa) = experiment: Test B flooded paddy test plant response
Method in brief: as §2

[15] = test system: umbrella sedge (Cyperus difformis); experiment: Test B flooded paddy test plant response
Method in brief: as §2

[16] = Preemergence, 8 g ai/ha, scale 0 to 100 (0 no effect, 100 complete control)
[17] = Preemergence, 16 g ai/ha, scale 0 to 100 (0 no effect, 100 complete control)
[18] = Preemergence, 62 g ai/ha, scale 0 to 100, 0 no effect, 100 complete control
[19] = Preemergence, 31 g ai/ha, scale 0 to 100 (0 no effect, 100 complete control)
[20] = Flood (flooded paddy test), 62 g ai/ha, scale 0 to 100, 0 no effect, 100 complete control
[21] = Flood (flooded paddy test), 250 g ai/ha, scale 0 to 100, 0 no effect, 100 complete control
[22] = Postemergence, 8 g ai/ha, scale 0 to 100, 0 no effect, 100 complete control
[23] = Postemergence, 16 g ai/ha, scale 0 to 100, 0 no effect, 100 complete control
[24] = Postemergence, 31 g ai/ha, scale 0 to 100, 0 no effect, 100 complete control
[25] = Postemergence, 62 g ai/ha, scale 0 to 100, 0 no effect, 100 complete control
[26] = Flood (flooded paddy test), 125 g ai/ha, scale 0 to 100, 0 no effect, 100 complete control
[27] = Flood, 31 g ai/ha, scale 0 to 100

C#CCOC(=O)Oc1cnn(C)c(=O)c1-n1nc(-c2ccc(Cl)cc2)cc1C [Compound 58]
Plant response rating, Mustard, Wild [1, 16]: 0
Plant response rating, Mustard, Wild [1, 17]: 0
Plant response rating, Mustard, Wild [1, 18]: 0
Plant response rating, Windgrass [2, 16]: 0
Plant response rating, Windgrass [2, 17]: 20
Plant response rating, Windgrass [2, 19]: 50
Plant response rating, Windgrass [2, 18]: 70
Plant response rating, Ryegrass, Italian [3, 16]: 25
Plant response rating, Ryegrass, Italian [3, 17]: 65
Plant response rating, Ryegrass, Italian [3, 19]: 100
Plant response rating, Ryegrass, Italian [3, 18]: 100
Plant response rating, Pigweed [4, 16]: 0
Plant response rating, Pigweed [4, 18]: 0
Plant response rating, Oat, Wild (wild oat (Avena fatua); [16]): 0
Plant response rating, Oat, Wild (wild oat (Avena fatua); [17]): 50
Plant response rating, Oat, Wild (wild oat (Avena fatua); [19]): 65
Plant response rating, Oat, Wild (wild oat (Avena fatua); [18]): 75
Plant response rating, Bluegrass [5, 16]: 0
Plant response rating, Bluegrass [5, 17]: 0
Plant response rating, Bluegrass [5, 19]: 0
Plant response rating, Bluegrass [5, 18]: 0
Plant response rating, Blackgrass [6, 16]: 0
Plant response rating, Blackgrass [6, 17]: 65
Plant response rating, Blackgrass [6, 19]: 98
Plant response rating, Blackgrass [6, 18]: 100
Plant response rating, Barley, Spring [7, 16]: 0
Plant response rating, Barley, Spring [7, 17]: 0
Plant response rating, Barley, Spring [7, 19]: 10
Plant response rating, Barley, Spring [7, 18]: 75
Plant response rating, Wheat, Spring [8, 16]: 0
Plant response rating, Wheat, Spring [8, 17]: 50
Plant response rating, Wheat, Spring [8, 19]: 60
Plant response rating, Wheat, Spring [8, 18]: 90
Plant response rating, Wheat, Winter [9, 16]: 0
Plant response rating, Wheat, Winter [9, 17]: 0
Plant response rating, Wheat, Winter [9, 19]: 60
Plant response rating, Wheat, Winter [9, 18]: 80
Plant response rating, Barley, Winter [10, 16]: 0
Plant response rating, Barley, Winter [10, 17]: 0
Plant response rating, Barley, Winter [10, 19]: 0
Plant response rating, Barley, Winter [10, 18]: 75
Plant response rating, Canarygrass [11, 16]: 0
Plant response rating, Canarygrass [11, 17]: 60
Plant response rating, Canarygrass [11, 19]: 90
Plant response rating, Canarygrass [11, 18]: 95
Plant response rating, Bromegrass, Downy [12, 16]: 0
Plant response rating, Bromegrass, Downy [12, 17]: 15
Plant response rating, Bromegrass, Downy [12, 19]: 70
Plant response rating, Bromegrass, Downy [12, 18]: 75
Plant response rating, Foxtail, Green [13, 16]: 35
Plant response rating, Foxtail, Green [13, 17]: 98
Plant response rating, Foxtail, Green [13, 19]: 100
Plant response rating, Foxtail, Green [13, 18]: 100
Plant response rating, Ducksalad [14, 20]: 0
Plant response rating, Ducksalad [14, 21]: 45
Plant response rating, Rice (rice (Oryza sativa); [20]): 0
Plant response rating, Rice (rice (Oryza sativa); [21]): 60
Plant response rating, Sedge, Umbrella [15, 20]: 0
Plant response rating, Sedge, Umbrella [15, 21]: 0

CCc1cc(-c2ccc(Cl)c(Cl)c2)nn1-c1c(O)cnn(C)c1=O [Compound 20]
Plant response rating, Mustard, Wild [1, 22]: 0
Plant response rating, Mustard, Wild [1, 23]: 0
Plant response rating, Mustard, Wild [1, 24]: 0
Plant response rating, Mustard, Wild [1, 25]: 0
Plant response rating, Windgrass [2, 22]: 0
Plant response rating, Windgrass [2, 23]: 0
Plant response rating, Windgrass [2, 24]: 50
Plant response rating, Windgrass [2, 25]: 75
Plant response rating, Ryegrass, Italian [3, 22]: 65
Plant response rating, Ryegrass, Italian [3, 23]: 80
Plant response rating, Ryegrass, Italian [3, 24]: 95
Plant response rating, Ryegrass, Italian [3, 25]: 98
Plant response rating, Pigweed [4, 22]: 0
Plant response rating, Pigweed [4, 23]: 0
Plant response rating, Pigweed [4, 24]: 0
Plant response rating, Pigweed [4, 25]: 0
Plant response rating, Oat, Wild (wild oat (Avena fatua); [22]): 10
Plant response rating, Oat, Wild (wild oat (Avena fatua); [23]): 98
Plant response rating, Oat, Wild (wild oat (Avena fatua); [24]): 100
Plant response rating, Oat, Wild (wild oat (Avena fatua); [25]): 100
Plant response rating, Bluegrass [5, 22]: 0
Plant response rating, Bluegrass [5, 23]: 0
Plant response rating, Bluegrass [5, 24]: 0
Plant response rating, Bluegrass [5, 25]: 0
Plant response rating, Blackgrass [6, 22]: 0
Plant response rating, Blackgrass [6, 23]: 35
Plant response rating, Blackgrass [6, 24]: 60
Plant response rating, Blackgrass [6, 25]: 75
Plant response rating, Barley, Spring [7, 22]: 0
Plant response rating, Barley, Spring [7, 23]: 25
Plant response rating, Barley, Spring [7, 24]: 25
Plant response rating, Barley, Spring [7, 25]: 50
Plant response rating, Wheat, Spring [8, 22]: 0
Plant response rating, Wheat, Spring [8, 23]: 25
Plant response rating, Wheat, Spring [8, 24]: 25
Plant response rating, Wheat, Spring [8, 25]: 60
Plant response rating, Wheat, Winter [9, 22]: 0
Plant response rating, Wheat, Winter [9, 23]: 20
Plant response rating, Wheat, Winter [9, 24]: 30
Plant response rating, Wheat, Winter [9, 25]: 60
Plant response rating, Barley, Winter [10, 22]: 0
Plant response rating, Barley, Winter [10, 23]: 0
Plant response rating, Barley, Winter [10, 24]: 20
Plant response rating, Barley, Winter [10, 25]: 20
Plant response rating, Canarygrass [11, 22]: 10
Plant response rating, Canarygrass [11, 23]: 35
Plant response rating, Canarygrass [11, 24]: 75
Plant response rating, Canarygrass [11, 25]: 95
Plant response rating, Bromegrass, Downy [12, 22]: 0
Plant response rating, Bromegrass, Downy [12, 23]: 0
Plant response rating, Bromegrass, Downy [12, 24]: 0
Plant response rating, Bromegrass, Downy [12, 25]: 10
Plant response rating, Foxtail, Green [13, 22]: 0
Plant response rating, Foxtail, Green [13, 23]: 70
Plant response rating, Foxtail, Green [13, 24]: 80
Plant response rating, Foxtail, Green [13, 25]: 98
Plant response rating, Ducksalad [14, 20]: 0
Plant response rating, Ducksalad [14, 26]: 0
Plant response rating, Ducksalad [14, 21]: 0
Plant response rating, Ducksalad [14, 27]: 0
Plant response rating, Rice (rice (Oryza sativa); [20]): 0
Plant response rating, Rice (rice (Oryza sativa); [26]): 0
Plant response rating, Rice (rice (Oryza sativa); [21]): 0
Plant response rating, Rice (rice (Oryza sativa); [27]): 0
Plant response rating, Sedge, Umbrella [15, 20]: 0
Plant response rating, Sedge, Umbrella [15, 26]: 0
Plant response rating, Sedge, Umbrella [15, 21]: 0
Plant response rating, Sedge, Umbrella [15, 27]: 0
